Our source for the melting point and IC50 values is US6602889B1, “5-heteroaryl substituted indoles” (H. Lundbeck A.S., priority 1998, dated 2003).

One data set concerns the target T1, dopamine D2 receptors (Rattus norvegicus, UniProt P61169).
T1 construct: Male Wistar (Mol:Wistar) rats (125-250 g) are sacrificed and striatal tissue is dissected and weighed; from tissue; host or cells: rat corpus striatum membranes (male Wistar rats)
Description: Inhibition of 3H-spiperone binding to dopamine D2 receptors in rat corpus striatum in vitro. Here is the method: Inhibition of ^3H-Spiperone Binding to Dopamine D2 Receptors in Rat Corpus Striatum in vitro
By this method, the inhibition by drugs of the binding of ^3H -spiperone (=^3H-spiro-peridol) (0.5 nM) to dopamine D-2 receptors in membranes from rat corpus striatum is determined in vitro. […] Pharmacol. Toxicol. […] This is a test for dopamine D2 receptor binding affinity in vitro.
The tissue is homogenized (Ultra Turrax, 10 sec.) in 10 mL of ice-cold 50 mM K-phosphate buffer pH 7.4 (at 25° C.). The homogenate is centrifuged twice at 20,000 g for 10 min at 4° C. with rehomogenization of the pellet in 10 mL ice-cold buffer. The final pellet is homogenized in 1300 vol (w/v) ice-cold buffer.
The binding experiment is initiated by addition of 100 μl of ^3H-spiperone (final concentration 0.5 nM) and by placing the tubes in a 37° C. water bath. […] The tubes are rinsed with 5 mL ice-cold buffer which are then poured on the filters. Thereafter, the filters are washed with 2×5 mL of buffer. The filters are placed in counting vials and 4 mL of appropriate scintillation fluid (e.g. Picofluor ™15) are added. After shaking for 1 h and storage for 2 hrs in the dark, the content of radioactivity is determined by liquid scintillation counting. Specific binding is obtained by subtracting the nonspecific binding in the presence of 10 μM of 6,7-ADTN.
For determination of the inhibition of binding, five concentrations of drugs covering 3 orders of magnitude are used.
England, specific activity 15-25 Ci/mmol.

A further data set concerns the target α1-adrenoceptors. Description: Inhibition of 3H-prazosin binding to α1-adrenoceptors in rat brain in vitro. To be noted: 3H-prazosin 0.25 nM, membranes from rat brain. The procedure:
Method and results in Hyttel & Larsen, J. Neurochem.
The tissue is homogenized (Ultra Turrax, 10 se) in 10 mL of ice cold 50 mM tris buffer pH 7.7 (at 25° C.). The homogenate is centrifuged twice at 20,000 g for 10 min at 4° C. with rehomogenization of the pellet in 10 ml icecold buffer. The final pellet is homogenized in 250 vol (w/v) icecold buffer.
The binding experiment is initiated by addition of […] of tissue suspension (final tissue content corresponds to 3 mg original tissue) and by placing the 96 deep well titer plate in a 25 ° C. water bath. All tests are made in triplicates. After incubation for 20 min, the samples are filtered on a Brandel harvester under vacuum (18 inch. Hg) through printed filtermat B (13 mm). Titerplates and filter are washed 1×10 sec flow 50 L/h with ice cold buffer.
The filter mat is dried for 1 h at 110° C. and then placed in a sample bag with Meltilex B/HS (14.5 g) and melted together on the T-Tray heat sealer.
(§1) For determination of the inhibition of binding, five concentrations of drugs covering 3 decades are used.

The target in data set [1] is T2, serotonin S2 (5-HT2A) receptors (Rattus norvegicus, UniProt P14842).
T2 construct: Male Wistar (Mol:Wist) rats (125-250 g) are sacrificed and cortical tissue is dissected and weighed; from tissue; host or cells: rat cortex membranes (male Wistar rats)
T2 sequence (P14842 whole entry): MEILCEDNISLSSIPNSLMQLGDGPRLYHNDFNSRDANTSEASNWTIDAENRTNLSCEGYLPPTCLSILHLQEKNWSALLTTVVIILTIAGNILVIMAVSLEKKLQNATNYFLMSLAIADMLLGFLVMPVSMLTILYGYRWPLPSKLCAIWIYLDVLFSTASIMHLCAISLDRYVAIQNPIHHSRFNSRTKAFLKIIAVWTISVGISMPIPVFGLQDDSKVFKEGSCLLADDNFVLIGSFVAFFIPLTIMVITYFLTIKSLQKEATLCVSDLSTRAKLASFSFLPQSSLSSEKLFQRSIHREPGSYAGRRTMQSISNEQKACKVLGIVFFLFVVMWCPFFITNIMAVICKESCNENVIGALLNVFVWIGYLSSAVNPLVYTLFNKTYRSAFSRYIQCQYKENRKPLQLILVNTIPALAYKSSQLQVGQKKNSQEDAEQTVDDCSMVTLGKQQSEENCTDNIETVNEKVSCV
Nature of the data set: Inhibition of 3H-ketanserin binding to serotonin S2 (5-HT2A) receptors in rat cortex in vitro. Here is the method: Inhibition of ^3H-Ketanserin Binding to Serotonin S2 (5-HT2Å) Receptors in Rat Cortex in vitro
By this method the inhibition by drugs of the binding of ^3H-ketanserin (0.5 nM) to serotonin S2 (5-HT2) receptors in membranes from rat cortex is determined in vitro.
The tissue is homogenized (Ultra Turrax, 10 sec) in 10 mL of ice cold 50 mM tris buffer pH 7.7 (at 25° C.). The centrifuge glassware used in this step has been rinsed by sonication for 10 min in ethanol. The homogenate is centrifuged twice at 20,000 g for 10 min. at 4° C., with rehomogenization of the pellet in 10 mL icecold buffer. The final pellet is homogenized in 250 vol (w/v) icecold buffer.
Incubation tubes (96 deep well titer plate) kept on ice receive […] of ^3H ketanserin (final concentration 0.5 nM).
The binding experiment is initiated by addition of […] of tissue suspension (final tissue content corresponds to 4 mg original tissue) and by placing the 96 deep well titer plate in a 37° C. water bath. All tests are made in triplicates.
After incubation for 30 min, the samples are filtered on a Brandel harvester under vacuum (18 inch. Hg) through printed filter mat B (13 mm). Titerplate and filter are washed 2×10 sec. flow 50 L/h with ice cold buffer.
The printed filter mat with purred labelled tissue are dried for 1 h at 110° C. and hereafter placed in a sample bag with Meltilex B/HS 14.5 g and melted together on the T-tray heat seal.
Specific binding is obtained by subtracting the nonspecific binding in the presence of 1 mM mianserin.
as §1
^3H-ketanserin=(ethylene-^3H)-ketanserin hydrochloride from New England Nuclear, specific activity 60-80 Ci/mmol.

Where [2] appears, read: 3H-spiperone 0.5 nM, membranes from rat corpus striatum, read-out: IC50 values in nM, D2.
Setting [3] is: 3H-ketanserin 0.5 nM, membranes from rat cortex, read-out: IC50 values in nM, 5-HT2A.

Like-named read-outs stand apart in the source and are kept apart here.

T1 sequence (P61169 whole entry): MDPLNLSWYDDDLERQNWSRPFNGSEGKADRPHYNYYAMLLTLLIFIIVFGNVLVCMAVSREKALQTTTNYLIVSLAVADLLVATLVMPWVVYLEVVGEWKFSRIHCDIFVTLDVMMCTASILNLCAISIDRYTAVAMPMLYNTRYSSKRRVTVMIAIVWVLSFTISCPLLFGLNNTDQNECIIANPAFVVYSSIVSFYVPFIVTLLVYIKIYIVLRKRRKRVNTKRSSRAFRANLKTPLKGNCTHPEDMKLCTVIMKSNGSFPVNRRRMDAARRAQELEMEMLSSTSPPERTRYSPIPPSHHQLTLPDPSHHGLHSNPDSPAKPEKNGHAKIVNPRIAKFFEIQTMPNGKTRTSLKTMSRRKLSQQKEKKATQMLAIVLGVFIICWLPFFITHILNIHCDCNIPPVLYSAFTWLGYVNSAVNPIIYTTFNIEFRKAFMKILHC

For orientation: melting point means the temperature of the solid-liquid transition. For orientation: IC50 means the midpoint of a concentration-inhibition curve. With `Cn1nnc(Cc2ccc3c(c2)c(C2=CCN(CCN4CCNC4=O)CC2)cn3-c2ccc(F)cc2)n1` [Compound 22e, 1-[2-[4-[1-(4-fluorophenyl)-5-[(2-methyltetrazol-5-yl)methyl]-1H-indol-3-yl]-1,2,3,6-tetrahydropyridin-1-yl]ethyl]-2-imidazolidinone], the melting point fell in the range of 129 to 131 °C. Also, the IC50 on dopamine D2 receptors (setting [2]) was 8.6 nM. Also, the IC50 at α1-adrenoceptors was 1.5 nM. Also, the IC50 in data set [1] (setting [3]) worked out at 5 nM.

For the compound `CCn1nnc(-c2ccc3c(c2)c(C2=CCN(CCN4CCNC4=O)CC2)cn3-c2ccc(F)cc2)n1` [Compound 22c], the melting point fell in the range of 179 to 181 °C. In addition, the IC50 on dopamine D2 receptors (setting [2]) was 110 nM. Moreover, on α1-adrenoceptors, the IC50 came to 7.8 nM. In addition, the IC50 in data set [1] (setting [3]) was > 100 nM.

In turn, `CCn1nnc(-c2ccc3c(c2)c(C2CCN(CCN4CCNC4=O)CC2)cn3-c2ccc(F)cc2)n1.Cl.Cl` [Compound 23a, 1-[2-[4-[5-(2-ethyltetrazol-5-yl)-1-(4-fluorophenyl)-1H-indol-3-yl]-1-piperidinyl]ethyl]-2-imidazolidinone dihydrochloride] displayed a melting point of 172 to 174 °C. Also, at dopamine D2 receptors (setting [2]), the IC50 was > 100 nM. On α1-adrenoceptors, this compound gave a half-inhibitory concentration (IC50) of 6.1 nM. Moreover, in data set [1] (setting [3]), the IC50 amounted to 53 nM.

For the compound `Cn1nnnc1-c1ccc2c(c1)c(C1=CCN(CCN3CCNC3=O)CC1)cn2-c1ccc(F)cc1` [Compound 22b, 1-[2-[4-[1-(4-fluorophenyl)-5-(1-methyltetrazol-5-yl)-1H-indol-3-yl]-1,2,3,6-tetrahydropyridin-1-yl]ethyl]-2-imidazolidinone], the melting point is 198 to 200 °C. Further, on dopamine D2 receptors (setting [2]), the IC50 amounted to 4.7 nM. The compound also registered an IC50 on α1-adrenoceptors of 0.75 nM. In addition, the 50% inhibitory concentration (IC50) in data set [1] (setting [3]) is 38 nM.

`Cn1nnnc1Cc1ccc2c(c1)c(C1=CCN(CCN3CCNC3=O)CC1)cn2-c1ccc(F)cc1` [Compound 22d, 1-[2-[4-[1-(4-fluorophenyl)-5-[(1-methyltetrazol-5-yl)methyl]-1H-indol-3-yl]-1,2,3,6-tetrahydropyridin-1-yl]ethyl]-2-imidazolidinone] came in with a melting point of 174 to 176 °C. Besides, the concentration for half-maximal inhibition (IC50) on dopamine D2 receptors (setting [2]) stood at 5 nM. This compound registered an IC50 on α1-adrenoceptors of 0.72 nM. Moreover, the IC50 in data set [1] (setting [3]) turned out to be 18 nM.

For `CN1CC=C(c2cn(-c3ccc(F)cc3)c3ccc(-c4nnn(C)n4)cc23)CC1` [Compound 21b], the melting point fell in the range of 142 to 144 °C. In addition, the IC50 at dopamine D2 receptors was found to be 14 nM. Moreover, the IC50 on α1-adrenoceptors worked out at 9.4 nM. Further, in data set [1], the IC50 was > 100 nM.

Turning to `Cn1nnc(-c2ccc3c(c2)c(C2CCN(CCN4CCNC4=O)CC2)cn3-c2ccncc2)n1` [Compound 6a, 1-[2-[4-[5-(2-Methyltetrazol-5-yl)-1-(4-pyridyl)-1H-indol-3-yl]-1-piperidinyl]ethyl]-2-imidazolidinone], the melting point lay within 204 to 206 °C. Moreover, on dopamine D2 receptors (setting [2]), the IC50 was > 100 nM. The IC50 on α1-adrenoceptors stood at 18 nM. In addition, the IC50 in data set [1] (setting [3]) was > 100 nM.
